Assay results reported in patent US3979508A, “Compositions and methods therewith for penicillin hypersensitivity detection” (Kremers-Urban Company, priority 1975, dated 1976).
Where “and” joins values, the source holds several entries; their conditions need not be identical. Equal entries are not always repeated.

Tests used:
[1] = test system: penicillin hypersensitivity (patients); test: Clinical evaluation by 26 investigators: scratch/intradermal skin tests with PPL and Penicillin G (Tables IV-VII, IX-XI); type: in vivo, human; details: for TOTAL (+) No. / TOTAL (+) Percent of total positive: skin reactive penicillin allergy patients
Experimental: Twenty-six clinical investigators contributed a total of 1160 cases to the evaluation. Patients were tested according to a protocol as follows:
1. All patients being subjected to allergy investigation were to be tested for penicillin hypersensitivity. Two preparations were to be used. These are:
2. Penicillin G (Benzyl Penicillin) in a concentration of 10,000 units per cc.
For maximum safety, it was recommended that the tests first be done by the scratch technique. Intradermal tests were then to be done on those showing negative scratch tests. In cases where the penicillin sensitivity was suspected to be of a violent character, more dilute reagents were recommended at the discretion of the individual investigator.
A uniform technique was recommended for the performance of the intradermal tests. Only a minimal amount of testing reagent was to be injected so as to make a barely discernible intradermal bleb. The amount necessary for this injection is about 0.01 to 0.03 cc. It was recognized that the intrepretation of the test results is an important matter. The reactions were to be recorded in terms of (1) the time required for the appearance of a reaction, (2) the size of erythema and (3) the size of whealing. These were to be recorded as actual measurements. Some objective measurement of dermographism was also to be recorded.
It was also contemplated that all patients who were to be treated with penicillin be tested as recommended above, even though they had previously received penicillin with impunity.
A comprehensive clinical history was takan on each patient with particular regard to previous penicillin therapy, and reaction.
In order to properly analyze the data on such a large number of patients, a data processing system was utilized.
Table IV summarizes the skin test results on all patients, without regard to other specific factors. […] It will also be noted that a significant number of patients reacted only to PPL, and another group only to Pen G. Therefore, to detect the maximum number of reactors, both test reagents would be required. A technical problem was classification of the ambiguous or borderline reactors, particularly those showing only erythema. Attempts to correlate the appearance of the erythematous flare without wheal formation with a history of penicillin hypersensitivity were unsuccessful. In some instances, however, erythema without wheal did appear to be associated with hypersensitivity to the antibiotic. The time of development of erythema without wheal varied widely from a few minutes to more than 7 days which also made its importance questionable. as a diagnostic sign. For these reasons erythema alone responses were counted with the negatives. In some instances, however, data will be presented in which erythema without wheal are counted as positive responses (figures appearing in parentheses).

[2] = test system: penicillin hypersensitivity (patients); test: Comparison of skin tests with penicilloyl-poly-L-lysine and penicillin G (Table III); type: in vivo, human; details: 1163 tested
Experimental: One of the uses for the conjugates of this invention is in skin testing for penicillin hypersensitivity. The conjugated compositions are prepared for skin testing by first dissolving the composition in buffered isotonic solutions, having a pH in the range from 7 to 8. For example, the conjugates prepared above may be diluted with aqueous solutions 0.15 M NaCl in 0.01 M phosphate, pH 7.6. In addition, other physiological salt solutions may be used.
Intradermal injections may be made of the foregoing solutions with a 26 guage needle, the volume injected may be generally about 0.01 to 0.03 cc. Alternatively, the conjugate may be applied by the scratch test technique. The development of a wheal at the injection site after about 20 minutes indicates a positive reaction, and penicillin hypersensitivity.
Penicillin hypersensitivity tests carried out with the conjugate compositions of this invention reflect the numerous advantages of penicillin hypersensitivity determinations made with such compositions. […] In Table II the distribution of skin reactions is shown by history of penicillin therapy and hypersensitivity. […] (See column 2, for example, showing the percentages of patients tested who had […] skin test.)

[3] = Group I (675 patients): penicillin Rx, no hypersensitivity, erythema only counted as negative
[4] = Group I (675 patients): penicillin Rx, no hypersensitivity, parentheses: erythema only (ambiguous) counted as positive
[5] = Group II (352 patients): penicillin Rx & hypersensitive, erythema only counted as negative
[6] = Group II (352 patients): penicillin Rx & hypersensitive, parentheses: erythema only (ambiguous) counted as positive
[7] = Group III (70 patients): no penicillin Rx in past, erythema only counted as negative
[8] = Group III (70 patients): no penicillin Rx in past, parentheses: erythema only (ambiguous) counted as positive
[9] = Group IV (56 patients): no data, erythema only counted as negative
[10] = Group IV (56 patients): no data, parentheses: erythema only (ambiguous) counted as positive
[11] = TOTALS (1153 patients), erythema only counted as negative
[12] = TOTALS (1153 patients), parentheses: erythema only (ambiguous) counted as positive
[13] = TOTALS, all patients (1153 tested), erythema only counted as negative
[14] = TOTALS, all patients (1153 tested), parentheses: erythema only (ambiguous) counted as positive
[15] = history of therapy: Multi Courses (177 tested)
[16] = history of therapy: One Course (249 tested)
[17] = history of therapy: One Dose (152 tested)
[18] = history of therapy: TOTALS (578 tested)
[19] = reason for testing: "Penicillin" (240 tested)
[20] = reason for testing: Other Substances (463 tested)
[21] = reaction between 30 minutes and 24 hours post therapy, erythema only counted as negative
[22] = reaction between 30 minutes and 24 hours post therapy, parentheses: erythema only (ambiguous) counted as positive
[23] = reaction more than 24 hours post therapy, erythema only counted as negative
[24] = reaction more than 24 hours post therapy, parentheses: erythema only (ambiguous) counted as positive
[25] = reaction within 30 minutes post therapy, erythema only counted as negative
[26] = reaction within 30 minutes post therapy, parentheses: erythema only (ambiguous) counted as positive
[27] = type of hypersensitivity reaction: Skin (309 tested)
[28] = type of hypersensitivity reaction: Visceral (43 tested)

## CC1(C)S[C@@H]2[C@H](NC(=O)Cc3ccccc3)C(=O)N2[C@H]1C(=O)O [PG, Benzyl Penicillin, reference compound]
[1]; [3]
  Skin Test (+) No.: 24
  Skin Test (+) Percent: 3.6%
  Skin Test (-) No.: 651
  Skin Test (-) Percent: 96.4%
[1]; [4]
  Skin Test (+) No.: 56
  Skin Test (+) Percent: 8.3%
  Skin Test (-) No.: 619
  Skin Test (-) Percent: 91.7%
[1]; [5]
  Skin Test (+) No.: 47
  Skin Test (+) Percent: 13.4%
  Skin Test (-) No.: 305
  Skin Test (-) Percent: 86.6%
[1]; [6]
  Skin Test (+) No.: 65
  Skin Test (+) Percent: 18.5%
  Skin Test (-) No.: 287
  Skin Test (-) Percent: 81.5%
[1]; [7]
  Skin Test (-) No.: 70
  Skin Test (-) Percent: 100.0%
[1]; [8]
  Skin Test (+) No.: 5
  Skin Test (+) Percent: 7.1%
  Skin Test (-) No.: 65
  Skin Test (-) Percent: 92.9%
[1]; [9]
  Skin Test (+) No.: 1
  Skin Test (+) Percent: 1.8%
  Skin Test (-) No.: 55
  Skin Test (-) Percent: 98.2%
[1]; [10]
  Skin Test (+) No.: 3
  Skin Test (+) Percent: 5.3%
  Skin Test (-) No.: 53
  Skin Test (-) Percent: 94.6%
[1]; No reactions (675 tested)
  SKIN TEST RESPONSE No.: 24
  SKIN TEST RESPONSE Percent: 3.6%
[1]; [11]
  Skin Test (-) No.: 1081
  Skin Test (-) Percent: 93.8%
[1]; [12]
  Skin Test (-) No.: 1024
  Skin Test (-) Percent: 88.8%
[1]; [13]
  Skin Test (+) No.: 72
  Skin Test (+) Percent: 6.2% and 6.3%
[1]; [14]
  Skin Test (+) No.: 129
  Skin Test (+) Percent: 11.2%
[1]; delayed (after 24 hours) group
  positive skin tests, patients positive/patients in group: 17/144
[1]; delayed (after 24 hours) group, 144 patients
  positive skin tests, percent of group: 11.8%
[1]; [15]
  Skin Reactions PPL- / PEN G- No.: 10
  Skin Reactions PPL- / PEN G- Percent: 5.6%
[1]; [16]
  Skin Reactions PPL- / PEN G- No.: 8
  Skin Reactions PPL- / PEN G- Percent: 3.2%
[1]; [17]
  Skin Reactions PPL- / PEN G- No.: 17
  Skin Reactions PPL- / PEN G- Percent: 11.2%
[1]; [18]
  Skin Reactions PPL- / PEN G- No.: 35
  Skin Reactions PPL- / PEN G- Percent: 6.1%
[1]; immediate reacting group (within 30 minutes)
  positive skin tests, patients positive/patients in group: 17/56
[1]; immediate reacting group (within 30 minutes), 56 patients
  positive skin tests, percent of group: 30.4%
[1]; immediate reactor group
  percent of skin-test positive patients that would be missed if only this reagent were used as skin test antigen: 45%
[1]; [19]
  Skin Test (+) No.: 24
  Skin Test (+) Percent: 10.0%
[1]; [20]
  Skin Test (+) No.: 9
  Skin Test (+) Percent: 1.9%
[1]; scratch and intradermal skin testing of patients
  safety of skin testing: safe
[1]; [21]
  TOTAL (+) No.: 17
  TOTAL (+) Percent of total positive: 65.4%
[1]; [22]
  TOTAL (+) No.: 21
  TOTAL (+) Percent of total positive: 67.7%
[1]; [23]
  TOTAL (+) No.: 17
  TOTAL (+) Percent of total positive: 51.5%
[1]; reaction more than 24 hours post therapy, erythema only counted as negative, listed as Penicillin G
  TOTAL (+) Percent of total positive: ≤ 51.5%
[1]; [24]
  TOTAL (+) No.: 22
  TOTAL (+) Percent of total positive: 50.0%
[1]; [25]
  TOTAL (+) No.: 17
  TOTAL (+) Percent of total positive: 54.8%
[1]; reaction within 30 minutes post therapy, erythema only counted as negative, listed as Pen G
  TOTAL (+) Percent of total positive: 55%
[1]; reaction within 30 minutes post therapy, erythema only counted as negative, listed as Penicillin G
  TOTAL (+) Percent of total positive: 54.8%
[1]; [26]
  TOTAL (+) No.: 17
  TOTAL (+) Percent of total positive: 47.2%
[1]; [27]
  SKIN TEST RESPONSE No.: 39
  SKIN TEST RESPONSE Percent: 12.6%
[1]; [28]
  SKIN TEST RESPONSE No.: 14
  SKIN TEST RESPONSE Percent: 32.6%
[2]
  POSITIVE SKIN TESTS %: 14.3%
  Positive Skin Tests, Number of Patients: 166
